The values that follow are results of earlier work, collected in US8101633B2, “Preparation and utility of substituted imidazopyridine compounds with hypnotic effects” (Auspex Pharmaceuticals, Inc., priority 2006, dated 2012).

The subject of this data set is cytochrome P450. Conditions: background statement.

On to `Cc1ccc(-c2nc3ccc(C)cn3c2CC(=O)N(C)C)cc1` [zolpidem, Zolpidem], for which the “share of net intrinsic clearance accounted for by imidazopyridyl methyl group oxidation” value is on record as ~12% and the “share of net intrinsic clearance accounted for by oxidation of the benzylic methyl group” value was “approximately 84%”.
